The results in this text go back to US4968713A, “Certain imidazole compounds as transglutaminase inhibitors” (Merck & Co., Inc., priority 1989, dated 1990).

This assay deals with T1, Factor XIIIa (Homo sapiens, UniProt P00488).
T1 construct: from tissue; host or cells: human plasma
T1 sequence (P00488 39-732 limits assumed): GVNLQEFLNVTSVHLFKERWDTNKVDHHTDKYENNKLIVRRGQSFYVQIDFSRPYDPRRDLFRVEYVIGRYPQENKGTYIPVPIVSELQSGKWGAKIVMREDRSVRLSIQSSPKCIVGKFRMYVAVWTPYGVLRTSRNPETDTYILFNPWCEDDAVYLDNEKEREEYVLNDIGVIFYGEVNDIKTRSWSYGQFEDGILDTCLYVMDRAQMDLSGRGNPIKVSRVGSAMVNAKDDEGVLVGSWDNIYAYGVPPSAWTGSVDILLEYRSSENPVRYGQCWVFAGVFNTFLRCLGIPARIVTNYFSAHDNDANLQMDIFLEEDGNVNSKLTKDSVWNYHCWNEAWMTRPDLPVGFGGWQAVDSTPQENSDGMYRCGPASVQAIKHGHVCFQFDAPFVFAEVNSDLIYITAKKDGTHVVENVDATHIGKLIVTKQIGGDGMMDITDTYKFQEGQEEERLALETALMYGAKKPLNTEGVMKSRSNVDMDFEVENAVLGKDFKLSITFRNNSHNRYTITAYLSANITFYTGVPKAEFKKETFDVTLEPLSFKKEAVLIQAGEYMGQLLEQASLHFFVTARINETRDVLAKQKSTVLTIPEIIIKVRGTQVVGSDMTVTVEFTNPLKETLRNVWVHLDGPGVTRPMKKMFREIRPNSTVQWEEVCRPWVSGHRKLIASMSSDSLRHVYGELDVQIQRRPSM
The assay can be described thus: Factor XIIIa inhibitor assay (incorporation of 14C-putrescine into casein). The conditions noted are these: for inhibition at 0.1 µM: @ 100 nM. Format: biochemical. The procedure:
The Factor XIIIa inhibitor assay is based on the incorporation of ^14 C-putrescine into casein catalyzed by Factor XIIIa. The assay is carried out employing the procedure described in Methods in Enzymology, Vol. 45, Ch 15., pages 177-191 (1976) and using Factor XIII (F XIII) isolated from human plasma. The procedure is summarized briefly and schematically illustrated as follows: [drawing 9] Factor XIII assay mixtures are prepared by adding stepwise, appropriately prepared solutions of thrombin and dithiothreitol (DTT) to a mixture comprising Factor XIII at 140 μg/mL in glycerol/water and tris(hydroxymethyl)aminomethane hydrochloride (Tris.HCl). To a portion of the mixture is added calcium chloride as source of calcium ions required for enzyme activity and to the remaining mixture is added, instead of calcium ions, ethylenediaminetetraacetic acid (EDTA) which serves as a blank for background. A substrate mixture is prepared from ^14 C-putrescine and N,N-dimethylcasein. The assay tubes and control tubes are charged with the substrate mixture and incubated at 37° C. for 20 minutes. Samples are withdrawn from each tube, spotted onto a filter disk which is then immersed in ice cold trichloroacetic acid solution to precipitate the casein on the filter. The filter is then washed to remove unincorporated or free ^14 C-putrescine and after drying is counted for ^14 C-putrescine incorporated to casein from which percent activity and/or inhibition can be calculated.

The mark [1] stands for this setting: read-out: Percent inhibition (Molar concn).

Where a name gives a salt, the structure may show the parent alone.

For the compound `CCC(=O)CSc1n(C)c(C)c(C)[n+]1C` [CH3, CH3, CH3, CH3, CH3, CF3 SO3^-], the inhibition at 0.1 µM under setting [1] amounted to 93%.

As for `CC(=O)CSc1n(C)c(C)c[n+]1C` [H, CH3, CH3, H, CH3, CF3 SO3^-, 1,3,5-Trimethyl-2[(2-oxopropyl)thio]imidazolium trifluoromethylsulfonate], under setting [1], the inhibition at 0.1 µM was 90%.

With `CC(=O)CSc1n(C)cc[n+]1C` [H, CH3, H, H, CH3, Cl^-], under “@ 313 nM, read-out: Percent inhibition (Molar concn)”, the inhibition at 0.313 µM was 67%.

Regarding `CC(=O)CSc1n(C)c(C)c(C)[n+]1C.[Cl-]` [H, CH3, CH3, CH3, CH3, Cl^-, 1,3,4,5-Tetramethyl-2[(2-oxopropyl)thio]imidazolium chloride], the “Percent inhibition (Molar concn)” value (@ 80 nM) was 95%.

In the case of `CCCc1c(CCC)[n+](C)c(SCC(C)=O)n1C` [H, CH3, C3 H7, C3 H7, CH3, CF3 SO3^-, 1,3-Dimethyl-4,5-di(n-propyl)-2-[(2-oxopropyl)thio]imidazolium trifluoromethylsulfonate], the inhibition at 0.1 µM under setting [1] stood at 86%.

In the case of `CC(=O)CSc1n(C)c(C)c(C)[n+]1C` [H, CH3, CH3, CH3, CH3, CF3 SO3^-, 1,3,4,5-tetramethyl-2[(2-oxopropyl)thio]imidazolium trifluoromethylsulfonate], the inhibition at 0.08 µM (@ 80 nM, read-out: Percent inhibition (Molar concn)) was 95%.

`CC(=O)CSc1n(C)cc[n+]1C` [H, CH3, H, H, CH3, I^-]: the inhibition at 0.11 µM (@ 110 nM, read-out: Percent inhibition (Molar concn)) was determined as 44%.

In the case of `CC(=O)CSc1nccn1C` [H, CH3, H, H, --, --], under “@ 0.15 μM, read-out: Percent inhibition (Molar concn)”, the inhibition at 0.15 µM amounted to 40%.

Turning to `CC(=O)CSc1nc(C)c(C)n1C` [H, CH3, CH3, CH3, --, HCl, 1,4,5-Trimethyl-2[(2-oxopropyl)thio]imidazole], the inhibition at 3.7 µM (@ 3.7 μM, read-out: Percent inhibition (Molar concn)) is 76%.

With `CCCc1nc(SCC(C)=O)n(C)c1C` [H, CH3, CH3, C3 H7, --, HCl], for the setting “@ 4 μM, read-out: Percent inhibition (Molar concn)”, the inhibition at 4 µM was found to be 46%.

On to `CC(=O)CSc1ncc(C)n1C` [H, CH3, CH3, H, --, HCl, 1,5-Dimethyl-2[(2-oxopropyl)thio]imidazole], for which, for the setting “@ 2 μM, read-out: Percent inhibition (Molar concn)”, the inhibition at 2 µM came to 47%.

On to `CC(=O)CSc1n(C)c(C(C)C)c(C(C)C)[n+]1C` [H, CH3, iPr, iPr, CH3, CF3 SO3^-], for which the inhibition at 1 µM (@ 1.0 μM, read-out: Percent inhibition (Molar concn)) was 44%.
